Results: patent publication US20250228239A1, “MOLECULES HAVING PESTICIDAL UTILITY, AND INTERMEDIATES, COMPOSITIONS, AND PROCESSES, RELATED THERETO” (priority 2024, published 2025)

How the values were obtained:
Assay type in all cases: in vivo
[1] = system: Beet Armyworm (Spodoptera exigua, LAPHEG); assay: Bioassays on Beet Armyworm (BAW), 128-well diet tray assay; settings: Spodoptera exigua; Beet Armyworm, Table ABC / ABC-DP rating; read-out: BAW rating
In short: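 Larvae at second instar are exposed on dried, compound-treated diet (50 μg/cm^2, delivered in 90:10 acetone-water) in eight replicate wells. After five to seven days at 25° C., 14:10 light-dark, percent mortality in each well is scored and the eight wells averaged.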

[2] = system: Cabbage Looper (Trichoplusia ni, TRIPNI); assay: Bioassays on Cabbage Looper (CL), 128-well diet tray assay; settings: Trichoplusia ni; Cabbage Looper, Table ABC / ABC-DP rating; read-out: CL rating
In short: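 Each of eight wells receives artificial diet treated at 50 μg/cm^2 with the test molecule, then one to five second-instar larvae. Incubation runs five to seven days at 25° C with a 14:10 light-dark cycle under vented covers. Mortality is scored per well as a percentage and averaged.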

[3] = system: Yellow Fever Mosquito (Aedes aegypti, AEDSAE); settings: Yellow Fever Mosquito, Table ABC / ABC-DP rating
In short: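 Compounds from 4000 ppm DMSO stocks were diluted in 90:10 water/acetone and dispensed into wells, then infested with about 1-day-old larvae in liver-powder water. Covered plates were held at room temperature for 3 days and each well was scored for mortality against a rating scale; six replicate plates per compound.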

| Compound | pest or weed control at 50 µg/cm2 [1] | pest or weed control at 50 µg/cm2 [2] | YFM rating [3] |
| --- | --- | --- | --- |
| O=C(COC(F)(F)F)Nc1c(F)ccc(NC(=O)c2cc(NC(=O)[C@H]3[C@H](c4ccc(F)c(Br)c4)C3(Cl)Cl)ccc2Cl)c1F [F1780, 5-((1R,3R)-3-(3-Bromo-4-fluorophenyl)-2,2-dichlorocyclopropane-1-carboxamido)-2-chloro-N-(2,4-difluoro-3-(2-(trifluoromethoxy)acetamido)phenyl)benzamide] | 50 to 100% | 50 to 100% | A (80–100) |
| CC(OC(F)(F)F)C(=O)Nc1c(F)ccc(NC(=O)c2cc(NC(=O)[C@H]3[C@H](c4ccc(F)c(Br)c4)C3(Cl)Cl)ccc2Cl)c1F (stereo partly drawn) [F1781, 5-((1R,3R)-3-(3-Bromo-4-fluorophenyl)-2,2-dichlorocyclopropane-1-carboxamido)-2-chloro-N-(2,4-difluoro-3-(2-(trifluoromethoxy)propanamido)phenyl)benzamide] | 50 to 100% | 50 to 100% | A (80–100) |
| O=C(Nc1ccc(F)c(NC(=O)C2(F)OC(F)(F)C(F)(F)C2(F)F)c1F)c1cc(NC(=O)[C@H]2[C@H](c3ccc(F)c(C(F)(F)F)c3)C2(Cl)Cl)ccc1Cl (stereo partly drawn) [F1782, N-(3-(2-Chloro-5-((1R,3R)-2,2-dichloro-3-(4-fluoro-3-(trifluoromethyl)phenyl)cyclopropane-1-carboxamido)benzamido)-2,6-difluorophenyl)-2,3,3,4,4,5,5-heptafluorotetrahydrofuran-2-carboxamide] | 50 to 100% | 50 to 100% | A (80–100) |
| CCN(C(=O)COC(F)(F)F)c1c(F)ccc(NC(=O)c2cc(NC(=O)[C@H]3[C@H](c4ccc(F)c(C(F)(F)F)c4)C3(Cl)Cl)ccc2Cl)c1F [F1789, 2-Chloro-5-((1R,3R)-2,2-dichloro-3-(4-fluoro-3-(trifluoromethyl)phenyl)cyclopropane-1-carboxamido)-N-(3-(N-ethyl-2-(trifluoromethoxy)acetamido)-2,4-difluorophenyl)benzamide] | 50 to 100% | 50 to 100% | A (80–100) |
| O=C(COC(F)F)Nc1c(F)ccc(NC(=O)c2cc(NC(=O)[C@H]3[C@H](c4ccc(F)c(C(F)(F)F)c4)C3(Cl)Cl)ccc2Cl)c1F [F1790, 2-Chloro-5-((1R,3R)-2,2-dichloro-3-(4-fluoro-3-(trifluoromethyl)phenyl)cyclopropane-1-carboxamido)-N-(3-(2-(difluoromethoxy)acetamido)-2,4-difluorophenyl)benzamide] | 50 to 100% | 50 to 100% | A (80–100) |
| CN(C(=O)c1cc(NC(=O)[C@H]2[C@H](c3ccc(Cl)c(Cl)c3)C2(Cl)Cl)ccc1Cl)c1ccc(F)c(NC(=O)C(F)(F)F)c1F [F1792, 2-Chloro-5-((1R,3R)-2,2-dichloro-3-(3,4-dichlorophenyl)cyclopropane-1-carboxamido)-N-(2,4-difluoro-3-(2,2,2-trifluoroacetamido)phenyl)-N-methylbenzamide] | 50 to 100% | 50 to 100% | A (80–100) |
| CN(C(=O)c1cc(NC(=O)[C@H]2[C@H](c3ccc(Cl)c(Cl)c3)C2(Cl)Cl)ccc1Cl)c1ccc(F)c(NC(=O)COC(F)(F)F)c1F [F1793, 2-Chloro-5-((1R,3R)-2,2-dichloro-3-(3,4-dichlorophenyl)cyclopropane-1-carboxamido)-N-(2,4-difluoro-3-(2-(trifluoromethoxy)acetamido)phenyl)-N-methylbenzamide] | 50 to 100% | 50 to 100% | A (80–100) |
| CCOC(C)C(=O)Nc1c(F)ccc(N(C)C(=O)c2cc(NC(=O)[C@H]3[C@H](c4ccc(Cl)c(Cl)c4)C3(Cl)Cl)ccc2Cl)c1F (stereo partly drawn) [F1794, 2-Chloro-5-((1R,3R)-2,2-dichloro-3-(3,4-dichlorophenyl)cyclopropane-1-carboxamido)-N-(3-(2-ethoxypropanamido)-2,4-difluorophenyl)-N-methylbenzamide] | 50 to 100% | 50 to 100% | B (More than 0 – Less than 80) |
| CN(C(=O)c1cc(NC(=O)[C@H]2[C@H](c3ccc(F)c(C(F)(F)F)c3)C2(Cl)Cl)ccc1Cl)c1ccc(F)c(NC(=O)C(F)(F)F)c1F [F1795, 2-Chloro-5-((1R,3R)-2,2-dichloro-3-(4-fluoro-3-(trifluoromethyl)phenyl)cyclopropane-1-carboxamido)-N-(2,4-difluoro-3-(2,2,2-trifluoroacetamido)phenyl)-N-methylbenzamide] | 50 to 100% | 50 to 100% | A (80–100) |
| CN(C(=O)c1cc(NC(=O)[C@H]2[C@H](c3ccc(F)c(C(F)(F)F)c3)C2(Cl)Cl)ccc1Cl)c1ccc(F)c(NC(=O)COC(F)(F)F)c1F [F1796, 2-Chloro-5-((1R,3R)-2,2-dichloro-3-(4-fluoro-3-(trifluoromethyl)phenyl)cyclopropane-1-carboxamido)-N-(2,4-difluoro-3-(2-(trifluoromethoxy)acetamido)phenyl)-N-methylbenzamide] | 50 to 100% | 50 to 100% | A (80–100) |
| CCOC(C)C(=O)Nc1c(F)ccc(N(C)C(=O)c2cc(NC(=O)[C@H]3[C@H](c4ccc(F)c(C(F)(F)F)c4)C3(Cl)Cl)ccc2Cl)c1F (stereo partly drawn) [F1797, 2-Chloro-5-((1R,3R)-2,2-dichloro-3-(4-fluoro-3-(trifluoromethyl)phenyl)cyclopropane-1-carboxamido)-N-(3-(2-ethoxypropanamido)-2,4-difluorophenyl)-N-methylbenzamide] | 50 to 100% | 50 to 100% | A (80–100) |
| CN(C(=O)c1cc(NC(=O)[C@H]2[C@H](c3ccc(F)c(C(F)(F)F)c3)C2(Cl)Cl)ccc1Cl)c1ccc(F)c(NC(=O)C2CCCO2)c1F (stereo partly drawn) [F1798, N-(3-(2-Chloro-5-((1R,3R)-2,2-Dichloro-3-(4-fluoro-3-(trifluoromethyl)phenyl)cyclopropane-1-carboxamido)-N-methylbenzamido)-2,6-difluorophenyl)tetrahydrofuran-2-carboxamide] | 50 to 100% | 50 to 100% | B (More than 0 – Less than 80) |
| CC(=O)Nc1c(F)ccc(N(C)C(=O)c2cc(NC(=O)[C@H]3[C@H](c4ccc(F)c(C(F)(F)F)c4)C3(Cl)Cl)ccc2Cl)c1F [F1799, N-(3-Acetamido-2,4-difluorophenyl)-2-chloro-5-((1R,3R)-2,2-dichloro-3-(4-fluoro-3-(trifluoromethyl)phenyl)cyclopropane-1-carboxamido)-N-methylbenzamide] | 50 to 100% | 50 to 100% | A (80–100) |
| O=C(CCC(F)(F)F)Nc1c(F)ccc(NC(=O)c2cc(NC(=O)[C@H]3[C@H](c4ccc(F)c(C(F)(F)F)c4)C3(Cl)Cl)ccc2Cl)c1F [F1800, 2-Chloro-5-((1R,3R)-2,2-dichloro-3-(4-fluoro-3-(trifluoromethyl)phenyl)cyclopropane-1-carboxamido)-N-(2,4-difluoro-3-(4,4,4-trifluorobutanamido)phenyl)benzamide] | 50 to 100% | 50 to 100% | A (80–100) |
| O=C(COC(F)(F)C(F)(F)F)Nc1c(F)ccc(NC(=O)c2cc(NC(=O)[C@H]3[C@H](c4ccc(F)c(C(F)(F)F)c4)C3(Cl)Cl)ccc2Cl)c1F [F1808, 2-Chloro-5-((1R,3R)-2,2-dichloro-3-(4-fluoro-3-(trifluoromethyl)phenyl)cyclopropane-1-carboxamido)-N-(2,4-difluoro-3-(2-(perfluoroethoxy)acetamido)phenyl)benzamide] | 50 to 100% | 50 to 100% | B (More than 0 – Less than 80) |
| CC1(C(=O)Nc2c(F)ccc(NC(=O)c3cc(NC(=O)[C@H]4[C@H](c5ccc(F)c(C(F)(F)F)c5)C4(Cl)Cl)ccc3Cl)c2F)CCCO1 (stereo partly drawn) [F1809, N-(3-(2-Chloro-5-((1R,3R)-2,2-dichloro-3-(4-fluoro-3-(trifluoromethyl)phenyl)cyclopropane-1-carboxamido)benzamido)-2,6-difluorophenyl)-2-methyltetrahydrofuran-2-carboxamide] | 50 to 100% | 50 to 100% | A (80–100) |
| C#CCN(C(=O)CC#N)c1c(F)ccc(NC(=O)c2cc(NC(=O)[C@H]3[C@H](c4ccc(F)c(C(F)(F)F)c4)C3(Cl)Cl)ccc2Cl)c1F [F1810, 2-Chloro-N-(3-(2-cyano-N-(prop-2-yn-1-yl)acetamido)-2,4-difluorophenyl)-5-((1R,3R)-2,2-dichloro-3-(4-fluoro-3-(trifluoromethyl)phenyl)cyclopropane-1-carboxamido)benzamide] | 50 to 100% | 50 to 100% | A (80–100) |
| O=C(Nc1ccc(F)c(NC(=O)C(F)(F)F)c1)c1cc(NC(=O)[C@H]2[C@H](c3ccc(Cl)c(Cl)c3)C2(Cl)Cl)ccc1Cl [F1812, 2-Chloro-5-((1R,3R)-2,2-dichloro-3-(3,4-dichlorophenyl)cyclopropane-1-carboxamido)-N-(4-fluoro-3-(2,2,2-trifluoroacetamido)phenyl)benzamide] | 50 to 100% | 50 to 100% | B (More than 0 – Less than 80) |
